Assay results from patent US5420126A, “3,4-dihydro-2H-1,4-benzoxazine derivatives and pharmaceutical compositions containing the same” (Yamanouchi Pharmaceutical Co., Ltd., priority 1989, dated 1995).

Columns and labels:
[1] = tested on: 3,4-diaminopyridine-induced rhythmic contractions of left coronary artery ring segments; assay: Inhibition of 3,4-diaminopyridine-induced rhythmic contractions (frequency) in isolated coronary artery rings; parameters: species or system Mongrel dogs; conditions: Canis lupus familiaris; isolated dog coronary artery rings; 3,4-diaminopyridine 10 mM; 37° C.; read-out: IC50, inhibitory effect on the frequency of 3,4-diaminopyridine-induced rhythmic contractions
Protocol: (§1) The compounds, when given intravenously, reduced the blood pressure and increased the coronary blood flow in the dose range of 1 to 1,000 μg/kg and, when administered into the coronary artery, they dilated the coronary artery in the dose range of 0.3 to 100 μg.
(1) Effects on 3,4-diaminopyridine-induced rhythmic contractions
The method of Uchida and Sugimoto (Myakkangaku, 24, 133-143, 1984) was used. Mongrel dogs of either sex were anesthetized with pentobarbital (30 mg/kg i.v.) and bled to death and, then, the heart was excised from each animal. In the Krebs-Henseleit solution, the left coronary circumflex branch or the anterior descending branch was isolated and cut into rings, about 2 mm in width. The ring segment was fixed to a stainless steel hook and suspended in a Krebs-Henseleit bath (37° C.) aerated with 95%O2 -5%CO2 gas mixture under a tension load of 1.0 g, and isometric contractions were recorded.
After the specimen was stabilized for 30 minutes, rhythmic contractions were induced by addition of 3,4-diaminopyridine (10 mM). When the amplitude and frequency of rhythmic contractions became substantially steady, cumulative addition of the test compound to the organ bath was started. The concentration-response curves for the amplitude and frequency of contractions were constructed and the efficacy was evaluated.
The inhibitory effect on the frequency of contractions is shown in Column (1) in Table 1.

[2] = tested on: cardiovascular system (mean blood pressure, coronary blood flow); assay: Effects on the cardiovascular system in anesthetized dogs (i.v.); type: in vivo, Mongrel dogs
Protocol: as §1
(2) Effects on the cardiovascular system
Mongrel dogs of either sex were anesthetized with pentobarbital, 30 mg/kg i.v. and, after tracheal intubation, the experiment was performed under artificial respiration. After thoracotomy, heart rate, blood pressure, left ventricular pressure, max dLVP/dt, pulmonary arterial pressure, central venous pressure, cardiac output and coronary blood flow were measured. The test compound was administered through a cannula indwelt in the femoral vein and the efficacy was evaluated.
(3) Coronary vasodilating effect

[3] = tested on: spontaneously hypertensive rats (SHR); assay: Hypotensive effect, oral, in conscious spontaneously hypertensive rats (SHR); type: in vivo, Spontaneously hypertensive rats (SHR) of Okamoto-Aoki strain
Protocol: (§2) Then, in connection with Examples 1 and 2, the hypotensive effect of the test compound given orally in conscious spontaneously hypertensive rats (SHR) and the intravenous acute toxicity in mice were determined.
Spontaneously hypertensive rats (SHR) of Okamoto-Aoki strain were anesthetized with pentobarbital, 60 mg/kg i.p. Then, a cannula for blood pressure measurement was indwelt in the left common carotid artery and the other end of the cannula was led out extracorporeally from the posterior neck. After a stabilization period of 4-5 postoperative days, the blood pressure and heart rate were measured without restraint under no anesthesia. The test compound was suspended in 0.5% methylcellulose solution and the suspension was orally administered in a volume of 5 ml/kg and the efficacy was evaluated.

[4] = Acute toxic effect (LD50), intravenous; conditions: mouse, in vivo, i.v. (caudal vein), male mice, up and down method, read-out: LD50, acute toxic dose
Protocol: as §2
The acute toxic dose (LD50) of the test compound administered into the caudal vein was determined by the up and down method in male mice.

Structure (SMILES) | IC50 [1] [nM] | MBP: mean blood pressure-lowering effect (percent reduction) ([2]; 3 μg/kg i.v.) | MBP: mean blood pressure-lowering effect (percent reduction) ([2]; 10 μg/kg i.v.) | MBP: mean blood pressure-lowering effect ([3]; 300 μg/kg p.o.) | LD50 [4] [mg/kg] | MBP: mean blood pressure-lowering effect ([3]; 30 μg/kg p.o.)
CC1(C)CN(N2CCCC2=O)c2cc([N+](=O)[O-])ccc2O1 [41(4), 3,4-dihydro-2,2-dimethyl-4-(2-oxo-1-pyrrolidinyl)-6-nitro-2H-1,4-benzoxazine] | 50 | -20 Δ% |  |  |  | 
CC1(C)Oc2ccc(C#N)cc2C(N2CCCC2=O)C1O (centres unmarked) [Cromakalim, reference compound] | 390 |  | -28 Δ% | -35 Δ% | 49.7 | 
CC1(C)CN(c2cccc[n+]2[O-])c2cc([N+](=O)[O-])ccc2O1 [Example 1, 2-(3,4-dihydro-2,2-dimethyl-6-nitro-2H-1,4-benzoxazin-4-yl)pyridine N-oxide] | 10 | -16 Δ% |  |  | 50.4 | -25 Δ%
CC1(C)CN(c2cccc[n+]2[O-])c2cc(C#N)ccc2O1 [Example 2, 2-(6-cyano-3,4-dihydro-2,2-dimethyl-2H-1,4-benzoxazin-4-yl)pyridine N-oxide] | 240 |  | -20 Δ% | -40 Δ% | > 60 | 

Second part, led by results:

IC50 [1] [nM] | Structure (SMILES) | MBP: mean blood pressure-lowering effect (percent reduction) ([2]; 3 μg/kg i.v.) | MBP: mean blood pressure-lowering effect (percent reduction) ([2]; 10 μg/kg i.v.) | MBP: mean blood pressure-lowering effect ([3]; 300 μg/kg p.o.) | LD50 [4] [mg/kg] | MBP: mean blood pressure-lowering effect ([3]; 30 μg/kg p.o.)
70 | CC(=O)CN1CC(C)(C)Oc2ccc([N+](=O)[O-])cc21 [Example 38, 4-Acetonyl-3,4-dihydro-2,2-dimethyl-6-nitro-2H-1,4-benzoxazine] |  | -23 Δ% |  |  | 
20 | CN(C)C(=O)CN1CC(C)(C)Oc2ccc([N+](=O)[O-])cc21 [Example 56, 2-(3,4-dihydro-2,2-dimethyl-6-nitro-2H-1,4-benzoxazin-4-yl)-N,N-dimethylacetamide] | -11 Δ% |  |  |  | 
10 | CC1(C)CN(C2=CCCC2=O)c2cc([N+](=O)[O-])ccc2O1 [Example 70, 3,4-Dihydro-2,21-dimethyl-6-nitro-4-(5-oxo-1-cyclopenten-1-yl) -2H-1,4-benzoxazine] |  | -9 Δ% |  |  | 
